We go through 5 compounds from patent publication US5639745A, “Fused-bicyclic lactams as interleukin-1β converting enzyme inhibitors” (Sanofi, priority 1995, dated 1997).

Where only a bound is given, the exact number is not on record here.

The test system of series [1] is mature IL-1β release from human monocytes. Kind of series: human monocyte pulse chase assay, inhibition of release of mature IL-1β (called In Vivo Assay). The format is cell-based. Particulars: human monocytes stimulated with fixed S. aureus. The procedure:
In vivo inhibition (IC50) was determined as follows:
Human monocytes were isolated from heparinized leukopheresis units obtained through Biological Specialty Corporation (Lansdale, Pa.). Monocytes were purified by Ficoll-Hupaque (Pharmacia Fine Chemicals, Piscataway, N.J.) gradient centrifugation and more than 95% pure monocyte populations obtained by centrifugal elutriation. The assay was performed on duplicate samples of freshly isolated human monocytes, cultured in suspension at 37° C. and rotated gently in conical bottom polypropylene tubes (Sardstedt Inc., Princeton, N.J.). Human monocytes at a concentration of 5×10^6 cells/mL were resuspended in 1 mL of RPMI 1640 (a common tissue buffer from M. A. Bioproducts, Walkersville, Md.) containing 1% fetal calf serum (FCS) (HyClone, Logan, Utah) and 50 μg/mL gentamycin (Gibco, Grand Island, N.Y.). The cells were treated either with a compound of the invention (i.e. test compound) or with a non-inhibitor (control compound, typically 0.03% DMSO) for 15 minutes and then activated with 0.01% fixed Staphylococcus aureus (The Enzyme Center, Malden, Mass.) for 1 hour. The cells were then centrifuged and resuspended in 1 mL of cysteine, methionine-free RPMI media containing 1% dialyzed FCS (Hyclone). The cells were pretreated with a test compound or control compound for 15 minutes after which 0.01% fixed S. aureus plus 100 μCi Tran 35-S label (ICN, Irvine, Calif.) was added and the cells incubated at 37° C. for 1 hour. After incubation, cells were centrifuged, washed once in phosphate buffer saline and resuspended in 1 mL RPMI containing 1% fetal calf serum. The cells were again pretreated with a test or control compound for 15 minutes and then 0.01% S. aureus for 2 hours. At the end of the incubation, cells were centrifuged and supernates saved for immunoprecipitation. Cells were washed once in phosphate buffer saline and then lysed in RIPA, a continuous cell media buffer containing 2 mM phenylmethylsulfonyl fluoride, 10 mM iodoacetate, 1 μg/mL pepstatin A, 1 μg/mL leupeptin and 0.5 TIU aprotinin.
For the immunoprecipitations, an equal volume of 1% dry milk in RIPA buffer plus 50 μL of resuspended protein A sepharose CL-4B (Pharmacia, Piscataway, N.Y.) was added to supernates and 1 mL of 4% dry milk containing protein A sepharose CL-4B to cell lysates and samples rotated for 30 minutes at 4° C. Beads were then centrifuged down, samples transferred to fresh tubes and incubated overnight with 40 μg rabbit anti-human IL-1β polyclonal antibody (Genzyme, Cambridge, Mass.). The IL-1β proteins were then precipitated with 70 μL protein A sepharose, resuspended in 60 μL SDS sample buffer and run on 15% SGD-PAGE gels. Autoradiography was performed on dried gels and the amount of radioactivity (counts per minute, cpm) quantitated using a Betascope 603 analyzer.
In the monocyte pulse chase assay, each test parameter was run in duplicate. Data was collected from the Beta Scope using a personal computer, then transferred to the VAX system for calculation of mean cpm and standard deviation of the mean. When test compounds were evaluated, the percent inhibition of release of mature IL-1β was calculated as follows:
100×[1-(cells treated with stimuli+test compound-unstimulated cells)/(cells treated with stimuli+control compound-unstimulated cells)]
These % inhibition values were then used to calculate IC50 value for each compound. Since the human monocyte pulse chase assay uses primary cells from different donors, each test compound was run in 2-3 separate experiments, using monocytes from 2-3 different donors.

Series [2] concerns the target T1, ICE (IL-1β protease) (Homo sapiens, UniProt P29466).
T1 sequence (P29466 120-297 limits assumed): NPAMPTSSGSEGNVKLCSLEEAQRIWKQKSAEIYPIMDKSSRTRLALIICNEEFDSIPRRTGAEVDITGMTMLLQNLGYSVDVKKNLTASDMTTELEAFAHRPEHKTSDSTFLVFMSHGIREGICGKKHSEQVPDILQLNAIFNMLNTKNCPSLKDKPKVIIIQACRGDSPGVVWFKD
T1 sequence (P29466 317-404 limits assumed): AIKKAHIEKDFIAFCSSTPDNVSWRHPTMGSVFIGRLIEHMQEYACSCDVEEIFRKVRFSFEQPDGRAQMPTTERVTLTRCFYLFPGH
The series can be described thus: modified in vitro enzyme assay, reversible Ki* for ICE (Succinyl-Tyr-Val-Ala-Asp-amino methylcoumarin substrate). The format is biochemical. Conditions: aldehydes. The procedure: Second order rates of inactivation were obtained by using the enzyme assay described in Dolle, R. E.; et al., J. Med Chem. (1994), 37, 563. […] In the case of these reversible inhibitors, the in vitro assay was modified to obtain the reversible Ki * as follows:
Ki * values for reversible inhibitors were determined by preincubating ICE with various concentrations of inhibitor in 10 mM HEPES (a common laboratory buffer; pH 7.5), 25% glycerol, 1 mM dithiothreitol for 30 minutes at 37 ° C. in a polystyrene 96-well plate. Remaining ICE activity was measured by adding 10 uM Succinyl-Tyrosine-Valine-Alanine-Aspartic acid-amino methylcoumarin (Bachem Bioscience, Inc.) and monitoring the increase in fluorescence at 37° C. using a Fluoroskan II fluorescence plate reader. The Ki * was calculated from a plat of 1/v versus I as described previously (Morrison, J. F. and Cleland, W. W. (1983) Biochemistry 22, 5507-5513.

Series [3] concerns IL-1 receptor. Particulars: cited from earlier work.
The subject of series [4] is acute myelogenous leukemia cells. Particulars: cited from earlier work.
Series [5] concerns IL-1 receptor. Particulars: colitis model; cited from earlier work.
Series [6] deals with chronic myelogenous leukemia cells. Conditions: cells removed from chronic myelogenous leukemia patients; cited from earlier work.
Series [7] relates to IL-1 receptor. Conditions: open-label human trial, subcutaneous; cited from earlier work.
For series [8], the system named is IL-1 receptor. Particulars: PG-APS arthritis, rats; cited from earlier work.

On to `O=C[C@H](CC(=O)O)NC(=O)[C@@H]1CCCN2C(=O)CC[C@H](NC(=O)OCc3ccccc3)C(=O)N12` [Example 2], for which, in series [1], the IC50 (usually the concentration that inhibits the measured activity by half) was < 10 µM. Further, the “mode of inhibition / binding kinetics” value in series [2] is “reversible inhibitors and display slow binding kinetics”.

Regarding `O=C[C@H](CC(=O)O)NC(=O)[C@@H]1CCCN2C(=O)CC[C@H](NC(=O)c3ccccc3)C(=O)N12` [Example 21], the IC50 in series [1] was < 10 µM. The “mode of inhibition / binding kinetics” value in series [2] is “reversible inhibitors and display slow binding kinetics”.

As to `O=C[C@H](CC(=O)O)NC(=O)[C@@H]1CCCN2C(=O)CC[C@H](NC(=O)c3ccc(OCC(=O)O)cc3)C(=O)N12` [Example 22], the IC50 in series [1] is < 10 µM. Further, the “mode of inhibition / binding kinetics” value in series [2] was “reversible inhibitors and display slow binding kinetics”.

Take “Antril: The IL-1 receptor antagonist, Antril (Synergen)”: the “joint swelling and disease activity” value in series [3] (after three weeks of daily treatment, subcutaneous) was “decrease in joint swelling and less disease activity”. Moreover, in series [3] (patients with active rheumatoid arthritis, subcutaneous 20, 70 and 200 mg), the antiinflammatory activity entry is given as “significant antiinflammatory activity”. The “effectiveness by dosing frequency” value in series [3] (subcutaneous 20, 70 and 200 mg) is reported as “most effective when taken daily”.

For IL-1ra: IL-1 receptor antagonist, the blast proliferation inhibition entry in series [4] was “Inhibition of Acute Myelogenous Leukemia Blast Proliferation”. Further, the “tissue necrosis and number of inflammatory cells in the colon” value in series [5] was “reduced tissue necrosis and the number of inflammatory cells in the colon”. The colony growth inhibition entry in series [6] was “inhibit colony growth”. Further, the “efficacy in Rheumatoid Arthritis” value in series [7] is “shows efficacy”. The joint swelling entry in series [8] was “supresses joint swelling”.
